In general, IC50 refers to the concentration needed to halve the response being measured. Low values mean inhibition by little substance, high ones a need for much substance. By EC50 is commonly meant the midpoint of the concentration-response curve.

Experimental findings from US8450354B2, “Substituted imidazo[1,2-b]pyridazine derivatives, pharmaceutical compositions, and methods of use as β-secretase inhibitors” (High Point Pharmaceuticals, LLC, priority 2010, dated 2013) are described below.

In assay [1] the target is T1, BACE-1 enzyme (Homo sapiens, UniProt P56817).
T1 construct: purchased R & D Systems 931AS
Briefly: BACE Fluorescence Resonance Energy Transfer (FRET) Assay. It counts as biochemical. Particulars: pH 4-4.5, 30 min pre-incubation, about 1.5 hours reaction, asterisk = mean. As for the experimental part: BACE Fluorescence Resonance Energy Transfer (FRET) Assay
In the following assay, the proteolytic activity of BACE is measured by observing cleavage of a fluorescent group from a peptide substrate containing a rhodamine fluorescent donor and a quenching acceptor.
The inhibitory activity of compounds of Formula (I) may be compared to a statine derived control inhibitor STA200 (MP Biomedical Cat. #STA-200). The cleavage reaction occurs when a BACE-1 substrate (Invitrogen, Cat. #P2986) was added to a reaction mixture containing BACE-1 enzyme (R & D Systems, Cat. #931AS) and allowed to proceed for about 1.5 hours. Fluorescence, used as a marker of BACE activity, is monitored using 540 nm excitation and 585 nm emission wavelengths (Envision, Perkin Elmer).
A typical assay reaction contains BACE-1 enzyme-in assay buffer (50 mM sodium acetate, pH 4-4.5, 0.01% CHAPS (3-[(3-Cholamidopropyl)dimethylammonio]-1-propanesulfonate), 0.0125% TritonX-100, 0.006% EDTA) which is pre-incubated for 30 minutes with test compound in 7.5% DMSO. The reaction is initiated with the addition of BACE-1 substrate in assay buffer and allowed to proceed for about 1.5 hours at room temperature. Assays are conducted in black 384-well microtiter plates and scanned at room temperature using 540 nm excitation and 585 nm emission wavelengths.
In some instances, the percent inhibition at a given concentration is reported instead of the IC50.

The nature of assay [2]: Aβ Cell Based Assay (Aβ1-40 secretion, ELISA). Also on record: species or system human. To be noted: Homo sapiens, HEK293; HEK-APPwt cells, 6 hours incubation, reduction of Aβ1-40 secretion; asterisk = mean. As to the method: Aβ Cell Based Assay Procedure
In the following assay, the proteolytic activity of BACE in cells exposed to varying concentrations of a compound of interest is measured by observing the amount of Aβ1-40 secreted from HEK293 cells (Human Embryonic Kidney epithelial cell line) stably expressing wildtype human APP695 protein (HEK-APPwt cells).
HEK-APPwt cells were grown in high glucose DMEM (Dulbecco's Modified Eagles Medium SIGMA Cat. #D5796) supplemented with 25 mM HEPES (4-(2-hydroxyethyl)-1-piperazineethanesulfonic acid) (pH 7.4) (Invitrogen Cat. #15630-114), 0.1 mM NEAA (Non-essential Amino Acids) (BioWhittaker Cat. #13-114E), 10% fetal bovine serum (SIGMA Cat. #F4135) and 250 μg/mL hygromycin (Invitrogen Cat. #10687-010) in T-225 flasks at 37° C. with 5% CO2 and humidity control.
Test compounds were initially prepared in DMSO and diluted with DMEM media containing 2% FBS (Fetal bovine serum). Ten standard compound solutions were prepared having a range of concentrations. The standard compound solutions were used to determine the EC50 of the test compound. The range of concentrations chosen may depend on the compound's predicted potency.
To prepare cells for the assay, a flask containing HEK-APPwt cells were trypsinized briefly (1 mL trypsin), and once the cells detached, 4 mL of 10% FBS-DMEM was added to the flask. The detached cells were centrifuged at 900 rpm for 5 min to form a pellet.
The HEK-APPwt cell pellet was re-suspended with 10 mL DMEM media containing 2% FBS. 80 μL of the cell suspension was added to each well of a 96-well cell culture plate to give 100×10^4 cells/ml. 10 μL of a standard compound solution was added to each well of the 96-well cell culture plate followed by 10 μL of Alamar blue solution. The cells were incubated at 37° C. in a 5% CO2 incubator for 6 hours.
At the end of the incubation, the plates were removed from incubator, and the supernatant was collected. Aβ1-40 concentration in the medium was measured by using a commercial Aβ1-X ELISA kit (IBL, Japan Cat. #27729). Briefly, the ELISA plates were coated with an anti-human Aβ (N)(82E1) mouse IgG monoclonal antibody. A horseradish peroxidase conjugated anti-human Aβ11-28 mouse IgG monoclonal antibody was used for detection. The cell culture supernatant was diluted with EIA buffer+protease inhibitors (kit buffer containing protease inhibitors (1 mL PI/30 mL buffer)). A 100 μL aliquot of the diluted supernatant was added to each well of the ELISA plate and incubated for 6 hrs at 4° C. The ELISA plate was washed 8 times with phosphate buffered saline (PBS) containing 0.05% TWEEN 20.
A 100 μL of detection antibody was then added and incubated for 1 hour at 4° C. The plate was washed 8 times with PBS buffer containing 0.05% Tween 20 followed by addition of 100 μL of the chromogen tetramethylbenzidine (TMB). The plate was incubated in the dark at room temperature for about 30 min and a stop solution (1N H2SO4) was added.
The intensity of the color developed was measured at 450 nm. The optical density at 450 nm (OD450) is proportional to the concentration of human Aβ1-40 secreted by the cell. As a reference, N—[N-(3,5-difluorophenacetyl-L-alanyl)]—S-phenylglycine t-butyl ester (DAPT, a γ-secretase inhibitor) was used to indicate 100% inhibition of […]. Thus, the assay measures the ability of a compound of interest to reduce Aβ1-40 secretion. Compound potency is reported in Table 3 as the EC50 by calculating the percent inhibition at all concentration levels and the data were fit with non-linear curve fitting algorithm using GraphPad Prism.
(An ELISA detects its analyte on a solid surface through an enzyme-linked reagent.)

T1 sequence (P56817 46-457 limits assumed): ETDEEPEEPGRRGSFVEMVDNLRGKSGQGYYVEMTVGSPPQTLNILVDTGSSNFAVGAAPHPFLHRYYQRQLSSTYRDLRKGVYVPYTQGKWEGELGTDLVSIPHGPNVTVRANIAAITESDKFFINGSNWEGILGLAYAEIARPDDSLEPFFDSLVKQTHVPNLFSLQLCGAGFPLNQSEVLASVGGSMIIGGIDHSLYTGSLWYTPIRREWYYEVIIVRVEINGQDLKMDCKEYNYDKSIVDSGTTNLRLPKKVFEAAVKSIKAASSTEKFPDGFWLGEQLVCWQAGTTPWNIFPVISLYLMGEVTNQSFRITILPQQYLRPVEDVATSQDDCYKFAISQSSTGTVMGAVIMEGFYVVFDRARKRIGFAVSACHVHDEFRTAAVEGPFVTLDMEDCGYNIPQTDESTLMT

The compound `CN1CC[C@H](Oc2ccc3nc(C(=O)Nc4nc5cc(-c6cc(F)cc(Cl)c6)ccc5[nH]4)cn3n2)C1` [Example 69] yielded an IC50 in assay [1] of 0.3 µM. In assay [2], this compound had an EC50 of 2.93 µM.

As to `COC[C@H](COc1ccc2nc(C(=O)Nc3nc4cc(-c5cccc(C(F)(F)F)c5)ccc4[nH]3)cn2n1)OC` [Example 135], half-maximal inhibition in assay [1] (IC50) required 0.117 µM. Further, in assay [2], a half-maximal response (EC50) required 0.45 µM.

Regarding `CCCC[C@H](O)COc1ccc2nc(C(=O)Nc3nc4cc(-c5cc(F)cc(Cl)c5)ccc4[nH]3)cn2n1` [Example 127], the IC50 in assay [1] stood at 0.163 µM. The compound further came in with an EC50 in assay [2] of 0.71 µM.

`O=C(Nc1nc2cc(-c3cccc(OC(F)(F)F)c3)ccc2[nH]1)c1cn2nc(OCCN3CCOCC3)ccc2n1` [Example 32] gave an IC50 in assay [1] of 0.234 µM. For the same compound, the half-maximal effective concentration (EC50) in assay [2] turned out to be 0.59 µM.

Turning to `CC(C)(O)CCOc1ccc2nc(C(=O)Nc3nc4cc(-c5cc(F)cc(Cl)c5)ccc4[nH]3)cn2n1` [Example 114], the IC50 in assay [1] was found to be 0.279 µM. Also, the midpoint of the response in assay [2], the EC50, lay at 0.33 µM.

Regarding `C[C@H](O)[C@H](C)Oc1ccc2nc(C(=O)Nc3nc4cc(-c5cccc(C(F)(F)F)c5)ccc4[nH]3)cn2n1` [Example 101], the IC50 in assay [1] turned out to be 0.136 µM. In addition, the response in assay [2] was half-maximal at 1.17 µM (EC50).

In assay [1], `C[C@@H](O)[C@@H](C)Oc1ccc2nc(C(=O)Nc3nc4cc(-c5cccc(C(F)(F)F)c5)ccc4[nH]3)cn2n1` [Example 100] had an IC50 of 0.26 µM. The same compound came in with an EC50 in assay [2] of 0.7 µM.

`CN(C)C(=O)COc1ccc2nc(C(=O)Nc3nc4cc(-c5cccc(C(F)(F)F)c5)ccc4[nH]3)cn2n1` [Example 141] registered an IC50 in assay [1] of 0.172 µM. Further, a half-maximal response in assay [2] (EC50) required 1.3 µM.

The compound `O=C(Nc1nc2cc(-c3cccc(C(F)(F)F)c3)ccc2[nH]1)c1cn2nc(OCCN3CCOCC3)ccc2n1` [Example 27, 6-(2-Morpholin-4-yl-ethoxy)-imidazol[1,2-b]pyridazine-2-carboxylic acid [5-(3-trifluoromethyl-phenyl)-1H-benzoimidazol-2-yl]-amide] yielded an IC50 in assay [1] of 0.262 µM. Besides, the midpoint of the response in assay [2], the EC50, lay at 0.58 µM.

In assay [1], `CC(C)(O)COc1ccc2nc(C(=O)Nc3nc4cc(-c5cccc(OC(F)(F)F)c5)ccc4[nH]3)cn2n1` [Example 112] displayed an IC50 of 0.251 µM. In assay [2], this compound had an EC50 of 0.48 µM.

In turn, `O=C(Nc1nc2cc(-c3cc(F)cc(Cl)c3)ccc2[nH]1)c1cn2nc(OCCN3CCOCC3)ccc2n1` [Example 50] registered an IC50 in assay [1] of 0.267 µM. Also, in assay [2], the EC50 turned out to be 0.58 µM.

Take `CC1(C)CCC(c2ccc3[nH]c(NC(=O)c4cn5nc(N6CC[C@@H](O)C6)ccc5n4)nc3c2)CC1` [Example 85]: 0.089 µM corresponded to half-maximal inhibition in assay [1] (IC50). Also, the EC50 in assay [2] came out at 2.27 µM.

Regarding `O=C(Nc1nc2cc(-c3cccc(C(F)(F)F)c3)ccc2[nH]1)c1cn2nc(OCCN3CCCC3=O)ccc2n1` [Example 25], the IC50 in assay [1] turned out to be 0.316 µM. In assay [2], this compound returned a concentration for a half-maximal effect (EC50) of 1.35 µM.

In assay [1], `CC1(C)CCC(c2ccc3[nH]c(NC(=O)c4cn5nc(N6CC[C@H](O)C6)ccc5n4)nc3c2)CC1` [Example 86] registered a 50% inhibitory concentration (IC50) of 0.123 µM. Further, in assay [2], a half-maximal effect (EC50) was put at 2.46 µM.

For the compound `CN(C)CCN(C)CCOc1ccc2nc(C(=O)Nc3nc4cc(-c5cc(F)cc(Cl)c5)ccc4[nH]3)cn2n1` [Example 49], the IC50 in assay [1] worked out at 0.21 µM. The midpoint of the response in assay [2], the EC50, lay at 1.8 µM.

As to `C[C@H](O)COc1ccc2nc(C(=O)Nc3nc4cc(-c5cccc(OC(F)(F)F)c5)ccc4[nH]3)cn2n1` [Example 145, 6-((S)-2-hydroxy-propoxy)-imidazo[1,2-b]pyridazine-2-carboxylic acid [5-(3-trifluoromethoxy-phenyl)-1H-benzoimidazol-2-yl]-amide], inhibition in assay [1] was half-maximal at 0.15 µM (IC50). In assay [2], the half-maximal effective concentration (EC50) was found to be 1.09 µM.

`CC(C)[C@H](O)COc1ccc2nc(C(=O)Nc3nc4cc(-c5cc(F)cc(Cl)c5)ccc4[nH]3)cn2n1` [Example 108]: in assay [1], the IC50 was found to be 0.357 µM. In addition, the EC50 in assay [2] is 0.89 µM.

`O=C(O)CCNc1ccc2nc(C(=O)Nc3nc4cc(-c5cccc(Cl)c5)ccc4[nH]3)cn2n1` [Example 96] had an IC50 in assay [1] of 0.328 µM.

In assay [1], `CCC[C@H](O)COc1ccc2nc(C(=O)Nc3nc4cc(-c5cc(F)cc(Cl)c5)ccc4[nH]3)cn2n1` [Example 125] came in with an IC50 of 1.18 µM.

The compound `CCOCCOc1ccc2nc(C(=O)Nc3nc4cc(-c5cccc(C(F)(F)F)c5)ccc4[nH]3)cn2n1` [Example 22] registered an IC50 in assay [1] of 0.249 µM.

In assay [1], `COc1ccc2nc(C(=O)Nc3nc4cc(OCc5ccc(C(F)(F)F)cc5)ccc4[nH]3)cn2n1` [Example 5] yielded a 50% inhibitory concentration (IC50) of 0.095 µM.

In assay [1], `O=C(Nc1nc2cc(-c3cccc(C(F)(F)F)c3)ccc2[nH]1)c1cn2nc(OCCN3CCCC3)ccc2n1` [Example 71] showed an IC50 of 0.327 µM.

With `CC1(C)CCC(c2ccc3[nH]c(NC(=O)c4cn5nc(C6CCNCC6)ccc5n4)nc3c2)CC1` [Example 82], in assay [1], the IC50 worked out at 1.07 µM. This IC50 is about 3.3-fold higher than that of the compound before.

On to `C[C@H](N)COc1ccc2nc(C(=O)Nc3nc4cc(-c5cccc(C(F)(F)F)c5)ccc4[nH]3)cn2n1` [Example 74], for which the IC50 in assay [1] amounted to 0.219 µM. Against the preceding compound, the IC50 is about 4.9-fold lower.

In the case of `O=C(Nc1nc2cc(-c3cc(F)cc(Cl)c3)ccc2[nH]1)c1cn2nc(OCCN3CCCC3)ccc2n1` [Example 19], in assay [1], the IC50 stood at 0.166 µM. This IC50 and that of the compound before are within 1.5-fold of each other.

As for `CC(C)(C)NCCOc1ccc2nc(C(=O)Nc3nc4cc(-c5cccc(C(F)(F)F)c5)ccc4[nH]3)cn2n1` [Example 24], inhibition in assay [1] was half-maximal at 0.291 µM (IC50).

In assay [1], `O=C(O)COc1ccc2nc(C(=O)Nc3nc4cc(-c5cccc(C(F)(F)F)c5)ccc4[nH]3)cn2n1` [Example 97] yielded a half-maximal inhibitory concentration (IC50) of 0.161 µM.

In turn, `COCCOc1ccc2nc(C(=O)Nc3nc4cc(-c5cccc(C(F)(F)F)c5)ccc4[nH]3)cn2n1` [Example 8, 6-(2-Methoxy-ethoxy)-imidazo[1,2-b]pyridazine-2-carboxylic acid [5-(3-trifluoromethyl-phenyl)-1H-benzoimidazol-2-yl]-amide] registered a half-inhibitory concentration (IC50) in assay [1] of 0.28 µM.

`O=C(Nc1nc2cc(C3CCCC3)ccc2[nH]1)c1cn2nc(N3CC[C@@H](O)C3)ccc2n1` [Example 95] yielded an IC50 in assay [1] of 0.431 µM.

In assay [1], `COCCOc1ccc2nc(C(=O)Nc3nc4cc(-c5ccc(Cl)c(C(F)(F)F)c5)ccc4[nH]3)cn2n1` [Example 62] registered an IC50 of 0.335 µM.

With `CC(C)NCCOc1ccc2nc(C(=O)Nc3nc4cc(-c5cccc(OC(F)(F)F)c5)ccc4[nH]3)cn2n1` [Example 28], the IC50 in assay [1] worked out at 0.253 µM.

For `CN1CCC[C@H]1COc1ccc2nc(C(=O)Nc3nc4cc(-c5cc(F)cc(Cl)c5)ccc4[nH]3)cn2n1` [Example 68], in assay [1], the IC50 is 0.344 µM.

With `CN(C)CCCOc1ccc2nc(C(=O)Nc3nc4cc(-c5cc(F)cc(Cl)c5)ccc4[nH]3)cn2n1` [Example 17], the IC50 in assay [1] is 0.171 µM.
